In publication PMC5750214 (Nature Communications, 2018):
Changes are numbered by the printed parent chain.

How the values were obtained:
[1] = target: T1, human AT1 receptor (angiotensin II type 1 receptor) (Homo sapiens, UniProt P30556); experiment: […]-Ang II competition binding, membranes
T1 construct: gene AGTR1; full-length receptor transfected in HEK293A cells; AT1 (human)-mCherry plasmid for NFAT assay
T1 sequence (P30556 1-359): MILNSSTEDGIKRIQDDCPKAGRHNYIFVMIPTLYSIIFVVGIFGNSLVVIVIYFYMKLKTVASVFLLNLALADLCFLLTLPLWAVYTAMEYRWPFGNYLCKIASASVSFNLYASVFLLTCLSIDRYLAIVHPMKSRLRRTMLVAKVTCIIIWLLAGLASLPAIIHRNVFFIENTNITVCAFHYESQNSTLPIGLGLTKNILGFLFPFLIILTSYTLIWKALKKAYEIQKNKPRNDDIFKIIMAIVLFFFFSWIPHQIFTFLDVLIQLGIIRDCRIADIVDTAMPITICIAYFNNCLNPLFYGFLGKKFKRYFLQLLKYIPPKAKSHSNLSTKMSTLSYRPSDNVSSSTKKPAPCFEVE

[2] = target: T2, human AT1 receptor (angiotensin II type 1 receptor) (Homo sapiens, UniProt P30556, C289S); experiment: […]-Ang II competition binding, membranes
T2 construct: gene AGTR1; full-length receptor transfected in HEK293A cells; AT1 (human)-mCherry plasmid for NFAT assay
T2 sequence (P30556 1-359 C289S): T1 sequence (P30556 1-359) with C289S

[3] = target: T3, human AT1 receptor (angiotensin II type 1 receptor) (Homo sapiens, UniProt P30556, R167A); experiment: […]-Ang II competition binding, membranes
T3 construct: gene AGTR1; full-length receptor transfected in HEK293A cells; AT1 (human)-mCherry plasmid for NFAT assay
T3 sequence (P30556 1-359 R167A): T1 sequence (P30556 1-359) with R167A

[4] = target: T1, human AT1 receptor (angiotensin II type 1 receptor); experiment: Ca2+ flux, Fluo-3-AM, HEK293A cells; assay type: cell-based

Ki [1]: 10.7 µM | Ki [2]: 159 µM | Ki [3]: 92 µM | EC50 [4]: 81.3 µM
SMILES: NC(CCS)C(=O)O (racemic) [Hcy]
